Laboratory results taken from the NIST ThermoML archive (doi:10.1016/j.jct.2009.01.014).
Several values for one entry are separate records, joined by “and”; a condition that tells them apart may be missing. Equal values may be shown once.

Assay: molar heat capacity at constant pressure
Conditions: 101.33 kPa, Vacuum adiabatic calorimetry

[Al+3].[Al+3].[Co+2].[O-2].[O-2].[O-2].[O-2] [aluminium cobalt oxide]
Conditions	molar heat capacity at constant pressure
4.72 K, Crystal 2	0.13 J/K/mol
5 K, Crystal 2	0.187 J/K/mol
5.71 K, Crystal 2	0.32 J/K/mol
6 K, Crystal 2	0.323 J/K/mol
6.45 K, Crystal 2	0.6 J/K/mol
6.71 K, Crystal 2	0.26 J/K/mol
6.88 K, Crystal 2	0.73 J/K/mol
7 K, Crystal 2	0.905 J/K/mol
7.21 K, Crystal 2	0.74 J/K/mol
7.25 K, Crystal 2	1.59 J/K/mol
7.46 K, Crystal 2	0.83 J/K/mol
7.65 K, Crystal 2	2.56 J/K/mol
7.66 K, Crystal 2	0.96 J/K/mol
7.81 K, Crystal 2	1.14 J/K/mol
7.85 K, Crystal 2	0.98 J/K/mol
7.94 K, Crystal 2	1.38 J/K/mol
8 K, Crystal 2	3.8 J/K/mol and 2.02 J/K/mol
8.05 K, Crystal 2	1.67 J/K/mol
8.17 K, Crystal 2	2 J/K/mol
8.29 K, Crystal 2	2.32 J/K/mol
8.32 K, Crystal 2	6.21 J/K/mol
8.47 K, Crystal 2	1.8 J/K/mol
8.62 K, Crystal 2	3.37 J/K/mol
8.66 K, Crystal 2	6.33 J/K/mol
8.71 K, Crystal 2	5.19 J/K/mol and 7.23 J/K/mol
8.98 K, Crystal 2	3.72 J/K/mol
9.28 K, Crystal 1	4.54 J/K/mol
9.32 K, Crystal 1	4.26 J/K/mol
9.33 K, Crystal 1	3.86 J/K/mol
9.95 K, Crystal 1	4.26 J/K/mol
10 K, Crystal 1	4.27 J/K/mol
10.45 K, Crystal 1	4.03 J/K/mol
10.5 K, Crystal 1	4.18 J/K/mol
10.76 K, Crystal 1	4.31 J/K/mol
11.38 K, Crystal 1	4.5 J/K/mol
11.87 K, Crystal 1	4.28 J/K/mol
12.04 K, Crystal 1	4.33 J/K/mol
12.41 K, Crystal 1	4.39 J/K/mol
12.96 K, Crystal 1	4.32 J/K/mol
13.36 K, Crystal 1	4.4 J/K/mol
13.69 K, Crystal 1	4.41 J/K/mol
13.73 K, Crystal 1	4.37 J/K/mol
14.57 K, Crystal 1	4.32 J/K/mol
14.84 K, Crystal 1	4.36 J/K/mol
15 K, Crystal 1	4.19 J/K/mol
15.02 K, Crystal 1	4.19 J/K/mol
15.35 K, Crystal 1	4.45 J/K/mol
16.08 K, Crystal 1	4.3 J/K/mol
16.27 K, Crystal 1	4.22 J/K/mol
16.99 K, Crystal 1	4.37 J/K/mol
17.59 K, Crystal 1	4.22 J/K/mol
17.64 K, Crystal 1	4.2 J/K/mol
18.61 K, Crystal 1	4.3 J/K/mol
18.8 K, Crystal 1	4.15 J/K/mol
19.9 K, Crystal 1	4.28 J/K/mol
20 K, Crystal 1	4.12 J/K/mol
20.2 K, Crystal 1	4.24 J/K/mol
20.34 K, Crystal 1	4.12 J/K/mol
20.92 K, Crystal 1	4.12 J/K/mol
21.76 K, Crystal 1	4.2 J/K/mol
21.88 K, Crystal 1	4.24 J/K/mol
22.65 K, Crystal 1	4.13 J/K/mol
23.29 K, Crystal 1	4.19 J/K/mol
24.79 K, Crystal 1	4.18 J/K/mol
24.8 K, Crystal 1	4.22 J/K/mol
25 K, Crystal 1	4.19 J/K/mol
26.22 K, Crystal 1	4.35 J/K/mol
26.96 K, Crystal 1	4.24 J/K/mol
27.5 K, Crystal 1	4.17 J/K/mol
28.68 K, Crystal 1	4.27 J/K/mol
29.17 K, Crystal 1	4.26 J/K/mol
29.76 K, Crystal 1	4.34 J/K/mol
30 K, Crystal 1	4.35 J/K/mol
31.39 K, Crystal 1	4.52 J/K/mol
31.42 K, Crystal 1	4.55 J/K/mol
33.59 K, Crystal 1	4.79 J/K/mol
34.14 K, Crystal 1	4.77 J/K/mol
35 K, Crystal 1	4.98 J/K/mol
35.82 K, Crystal 1	5.1 J/K/mol
36.43 K, Crystal 1	5.08 J/K/mol
38.1 K, Crystal 1	5.31 J/K/mol
38.48 K, Crystal 1	5.3 J/K/mol
40 K, Crystal 1	5.71 J/K/mol
40.31 K, Crystal 1	5.7 J/K/mol
40.44 K, Crystal 1	5.8 J/K/mol
42.02 K, Crystal 1	6.02 J/K/mol
42.79 K, Crystal 1	6.32 J/K/mol
43.71 K, Crystal 1	6.48 J/K/mol
45 K, Crystal 1	6.87 J/K/mol
45.17 K, Crystal 1	6.92 J/K/mol
45.43 K, Crystal 1	6.93 J/K/mol
